Results reported in patent publication US9090593B2, “Bicyclic compounds as Pim inhibitors” (AMGEN INC., priority 2010, dated 2015).
Like-named read-outs stand apart in the source and are kept apart here.

Legend:
[1] = target: T1, full length recombinant Pim-1 protein (Homo sapiens, UniProt P11309); experiment: Pim-1 enzyme assay (HTRF, phosphorylation of biotinylated-BAD (S112) peptide); type: biochemical; conditions: read-out: Pim_1_IC50
T1 construct: by full length recombinant Pim-1, Pim-2, or Pim-3 protein; hexahistidine tag followed by a thrombin cleavage site (N); made in house; host or cells: Sf9 (baculovirus) or E. coli (pET28)
T1 sequence (P11309 whole entry): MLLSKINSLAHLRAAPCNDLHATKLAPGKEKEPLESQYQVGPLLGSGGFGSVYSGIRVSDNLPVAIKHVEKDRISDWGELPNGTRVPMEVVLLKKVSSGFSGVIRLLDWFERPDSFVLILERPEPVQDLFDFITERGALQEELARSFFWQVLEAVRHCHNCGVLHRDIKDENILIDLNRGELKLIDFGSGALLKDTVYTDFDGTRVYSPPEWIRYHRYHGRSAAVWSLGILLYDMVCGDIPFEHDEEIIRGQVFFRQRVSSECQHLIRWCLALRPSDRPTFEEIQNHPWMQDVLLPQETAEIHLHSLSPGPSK
How it was run: (§1)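 Kinase: full-length human Pim-1/Pim-2, His6-thrombin tagged. Substrate biotin-BAD (S112) peptide. Buffer 60 mM Hepes pH 7.0, 0.05% BSA, 2 mM DTT. Stop 3 mM EDTA. Detection HTRF (Eu anti-pBAD/SA-APC). IC50 by 4-parameter logistic on POC.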

[2] = target: T2, full length recombinant Pim-2 protein (Homo sapiens, UniProt Q9P1W9); experiment: Pim-2 enzyme assay (HTRF, phosphorylation of biotinylated-BAD (S112) peptide); type: biochemical; conditions: read-out: Pim2_IC50
T2 construct: by full length recombinant Pim-1, Pim-2, or Pim-3 protein; hexahistidine tag followed by a thrombin cleavage site (N); made in house; host or cells: Sf9 (baculovirus) or E. coli (pET28)
T2 sequence (Q9P1W9 whole entry): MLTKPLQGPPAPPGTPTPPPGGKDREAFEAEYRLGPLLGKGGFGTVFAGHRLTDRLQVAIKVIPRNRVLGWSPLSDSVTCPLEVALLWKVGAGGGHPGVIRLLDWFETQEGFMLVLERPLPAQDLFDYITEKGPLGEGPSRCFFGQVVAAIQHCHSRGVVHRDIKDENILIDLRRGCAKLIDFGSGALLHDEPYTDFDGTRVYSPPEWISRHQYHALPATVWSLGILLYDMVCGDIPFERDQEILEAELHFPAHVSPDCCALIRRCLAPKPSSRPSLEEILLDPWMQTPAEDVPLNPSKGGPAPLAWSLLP
How it was run: as §1

[3] = target: T3, Pim-1 stably transfected into the U2OS human osteogenic sarcoma line (Homo sapiens, UniProt P11309); experiment: Pim cell assay, phospho-BAD normalized against total BAD, U2OS stably transfected with Pim-1; type: cell-based
T3 construct: expressed in transfected cells; host or cells: U2OS human osteogenic sarcoma line
T3 sequence (P11309 whole entry): as the sequence (P11309 whole entry) above
Protocol: (§2) The cell lines used in the assay were generated by the stable transfection of either Pim-1 or Pim-2 into the U2OS human osteogenic sarcoma line. The assay for determination of the Pim activity in the engineered U2OS cell lines measures levels of phospho-BAD normalized against total BAD protein levels. It was conducted as follows:
(§3) The adherent cells were dissociated from the flasks using non-enzymatic cell dissociation solution (Sigma # C5914). […] The cells were then incubated overnight at 37° C., 5% CO2.
(§4) In addition to the 10-point dosing curve of the test compound, DMSO alone was run as the high control.
(§5) This dilution in DMSO was then diluted again into cell growth medium. Aliquots (12 uL) of the compound diluted in growth medium were then transferred to the appropriate wells of the 96-well plates containing cells to yield a final DMSO concentration of 0.3%.
(§6) The cell plates containing lysis buffer were then immediately stored at −70° C.
(§7) These prepared lysates were then assayed for phospho and total BAD according to the manufacturer's protocols (Meso Scale Diagnostics, Cat# K15103C-3 & # K15103D-3). The plates were read on the MSD Sector Imager 6000, and results were calculated according to the assay protocols ((% Phosphoprotein=((2×Phospho signal)/(Phospho signal+Total signal))×100)).

[4] = target: T4, Pim-2 stably transfected into the U2OS human osteogenic sarcoma line (Homo sapiens, UniProt Q9P1W9); experiment: Pim cell assay, phospho-BAD normalized against total BAD, U2OS stably transfected with Pim-2; type: cell-based
T4 construct: expressed in transfected cells; host or cells: U2OS human osteogenic sarcoma line
T4 sequence (Q9P1W9 whole entry): as the sequence (Q9P1W9 whole entry) above
Protocol: as §2, §3, §4, §5, §6, §7

[5] = U2OS stably transfected with Pim-1, phospho-BAD normalized against total BAD, 29 min incubation, read-out: Pim1_Cell_IC50_
[6] = U2OS stably transfected with Pim-2, phospho-BAD normalized against total BAD, 29 min incubation, read-out: Pim2_Cell_IC50_
[7] = U2OS cells stably transfected with Pim-2, phospho-BAD, high dose […], read-out: Pim2_Cell_IC50
[8] = U2OS cells stably transfected with Pim-1, phospho-BAD, high dose […], read-out: Pim1_Cell_IC50

| IC50 [1] | IC50 [2] | IC50 [3, 5] | IC50 [4, 6] | SMILES | other results |
| --- | --- | --- | --- | --- | --- |
| 7 nM | 60 nM | 1540 nM |  | Fc1cccc(F)c1-c1ccc2[nH]nc(-c3cncc(SC4CCCNC4)n3)c2c1 (single isomer, unassigned) [Example 414] |  |
| 17 nM | 194 nM | 1660 nM | > 31600 nM | CC1CCNCC1Oc1cncc(-c2n[nH]c3ccc(-c4c(F)cccc4F)cc23)n1 (single isomer, unassigned) [Example 423] |  |
| 20 nM | 114 nM | 2410 nM | > 31600 nM | CC1(C)CNCCC1Oc1cncc(-c2n[nH]c3ccc(-c4c(F)cccc4F)cc23)n1 (single isomer, unassigned) [Example 432] |  |
| 2 nM | 22 nM | 801 nM | > 10000 nM | CC1(C)CNCCC1Oc1cncc(-c2n[nH]c3ccc(-c4c(F)cccc4F)cc23)n1 (single isomer, unassigned) [Example 433] |  |
| 6 nM | 30 nM | 592 nM |  | COc1cccc(-c2ccc3[nH]cc(-c4cncc(O[C@@H]5CCCNC5)n4)c3c2)c1 [Example 320] |  |
| 8 nM | 67 nM | 1310 nM |  | c1cc(OCC2CC2)ncc1-c1ccc2[nH]cc(-c3cncc(O[C@@H]4CCCNC4)n3)c2c1 [Example 323] |  |
| 8 nM | 111 nM | 1280 nM |  | COc1c(C)cc(-c2ccc3[nH]cc(-c4cncc(O[C@@H]5CCCNC5)n4)c3c2)cc1C [Example 331] |  |
|  | 1 nM | 83 nM | 3700 nM | c1cc2[nH]nc(-c3cncc(NC4CCNCC4)n3)c2cc1-c1cncc(C2CC2)n1 [Example 369, 6-(5-(6-cyclopropyl-2-pyrazinyl)-1H-indazol-3-yl)-N-4-piperidinyl-2-pyrazinamine] |  |
| 15 nM | 335 nM | 1480 nM |  | CC1(Oc2cncc(-c3n[nH]c4ccc(-c5c(F)cccc5F)cc34)n2)CCCNC1 (centres unmarked) [Example 417] |  |
|  | 2 nM | 76 nM | 3680 nM | NC1CCN(c2cncc(-c3n[nH]c4ccc(-c5cncc(C6CC6)n5)cc34)n2)CC1 [Example 503, 1-(6-(5-(6-cyclopropyl-2-pyrazinyl)-1H-indazol-3-yl)-2-pyrazinyl)-4-piperidinamine] |  |
| 5 nM | 127 nM | 7560 nM |  | NC1CCN(c2cncc(-c3n[nH]c4ccc(-c5cc6[nH]ccc6cn5)cc34)n2)CC1 [Example 504] |  |
|  | 1 nM | 1370 nM | > 31600 nM | Nc1cncc(-c2ccc3[nH]nc(-c4cncc(N5CCC(N)CC5)n4)c3c2)n1 [Example 508] |  |
|  | 6 nM | 51 nM | 4230 nM | NC1CCN(c2cncc(-c3n[nH]c4ccc(-c5cncc(NC6CC6)n5)cc34)n2)CC1 [Example 509] |  |
| 77 nM | 520 nM |  |  | c1cc2[nH]cc(-c3cncc(O[C@@H]4CCCNC4)n3)c2cc1-c1csc(N2CCCC2)n1 [Example 553] |  |
| > 1000 nM | > 1000 nM |  |  | CN(C)C(=O)c1ccc2[nH]nc(-c3cncc(O[C@@H]4CCCNC4)n3)c2c1 [Example 556] |  |
| > 1000 nM | > 1000 nM |  |  | CN(C)C(=O)c1ccc2[nH]nc(-c3ccnc(O[C@@H]4CCCNC4)n3)c2c1 [Example 557] |  |
|  | 1 nM | 202 nM | 8120 nM | COC(=O)c1ccc2[nH]nc(-c3cncc(NC4CCNCC4)n3)c2c1 [Example 559] |  |
|  | 5 nM | 394 nM | 4780 nM | CC(C)OC(=O)c1ccc2[nH]nc(-c3cncc(NC4CCNCC4)n3)c2c1 [Example 560] |  |
| > 1000 nM | > 1000 nM |  |  | CN(C)C(=O)c1ccc2[nH]nc(-c3ccnc(NC4CCNCC4)n3)c2c1 [Example 561] |  |
| > 1000 nM | > 1000 nM |  |  | COc1cc(-c2c[nH]c3ccc(-c4c(F)cccc4F)cc23)nc(N2CCOCC2)n1 [Example 562] |  |
| 87 nM | 143 nM |  |  | COc1cc(N2CCC(N)CC2)nc(-c2c[nH]c3ccc(-c4c(F)cccc4F)cc23)n1 [Example 563] |  |

Continued, molecule first:

| SMILES | IC50 [1] | IC50 [2] | IC50 [3, 5] | IC50 [4, 6] | other results |
| --- | --- | --- | --- | --- | --- |
| CC(C)Oc1cncc(-c2ccc3[nH]nc(-c4cncc(N5CCC(N)CC5)n4)c3c2)n1 [Example 5, 1-(6-(5-(6-isopropoxypyrazin-2-yl)-1H-indazol-3-yl)pyrazin-2-yl)piperidin-4-amine] |  |  |  |  | IC50 [4, 7]: 5440 nM; IC50 ([2]; enzyme assay, Pim-2): 16 nM; IC50 [3, 8]: 45 nM |
| NC1CCN(c2cncc(-c3n[nH]c4ccc(-c5cnc6[nH]nc(C(F)(F)F)c6c5)cc34)n2)CC1 [Example 6, 1-(6-(5-(3-(trifluoromethyl)-1H-pyrazolo[3,4-b]pyridin-5-yl)-1H-indazol-3-yl)pyrazin-2-yl)piperidin-4-amine] |  |  |  |  | IC50 [4, 7]: > 31600 nM; IC50 ([1]; enzyme assay, Pim-1): 1 nM; IC50 ([2]; enzyme assay, Pim-2): 35 nM; IC50 [3, 8]: 1880 nM |
| COc1cncc(-c2ccc3[nH]nc(-c4ccnc(N5CCC(N)CC5)n4)c3c2)c1 [Example 30, 1-(4-(5-(5-Methoxypyridin-3-yl)-1H-indazol-3-yl)pyrimidin-2-yl)piperidin-4-amine] |  |  |  |  | IC50 ([4]; read-out: Pim2_Cell_IC50): 2240 nM; IC50 ([1]; enzyme assay, Pim-1): 1 nM; IC50 ([2]; enzyme assay, Pim-2): 7 nM; IC50 ([3]; read-out: Pim1_Cell_IC50): 89 nM |
| NC1CCN(c2cncc(-c3n[nH]c4ccc(-c5cnc6[nH]ccc6c5)cc34)n2)CC1 [Example 57, 1-(6-(5-(1H-pyrrolo[2,3-b]pyridin-5-yl)-1H-indazol-3-yl)-2-pyrazinyl)-4-piperidinamine] |  |  |  |  | IC50 [4, 7]: > 31600 nM; IC50 ([1]; enzyme assay, Pim-1): 1 nM; IC50 ([2]; enzyme assay, Pim-2): 10 nM; IC50 [3, 8]: 605 nM |
| Nc1cnnc(-c2ccc3[nH]nc(-c4cncc(N5CCC(N)CC5)n4)c3c2)c1 [Example 104, 6-(3-(6-(4-amino-1-piperidinyl)-2-pyrazinyl)-1H-indazol-5-yl)-4-pyridazinamine] |  |  |  |  | IC50 [4, 7]: > 31600 nM; IC50 ([2]; enzyme assay, Pim-2): 1 nM; IC50 [3, 8]: 1920 nM |
| NC1CCN(c2cncc(-c3n[nH]c4ccc(-c5cncc(C6CC6)n5)cc34)n2)CC1 [Example 109, 1-(6-(5-(6-cyclopropyl-2-pyrazinyl)-1H-indazol-3-yl)-2-pyrazinyl)-4-piperidinamine] |  |  |  |  | IC50 [4, 7]: 1730 nM; IC50 ([2]; enzyme assay, Pim-2): 2 nM |
| c1cc2[nH]nc(-c3cncc(N[C@@H]4CCCNC4)n3)c2cc1-c1cncc(C2CC2)n1 [Example 243, 6-(5-(6-cyclopropyl-2-pyrazinyl)-1H-indazol-3-yl)-N-((3R)-3-piperidinyl)-2-pyrazinamine] |  | 8 nM | 99 nM | 5590 nM |  |
| O=c1cc(-c2c[nH]c3ccc(-c4c(F)cccc4F)cc23)nc(N[C@@H]2CCCNC2)[nH]1 [Example 279, (R)-6-(5-(2,6-difluorophenyl)-1H-indol-3-yl)-2-(piperidin-3-ylamino)pyrimidin-4(3H)-one] | 1 nM |  | 2400 nM | > 31600 nM |  |
| c1cc(OC2CCC2)nc(-c2ccc3[nH]cc(-c4cncc(O[C@@H]5CCCNC5)n4)c3c2)c1 [Example 301] | 13 nM | 122 nM | 2540 nM |  |  |
| c1cc2[nH]cc(-c3cncc(O[C@@H]4CCCNC4)n3)c2cc1-c1cncc(N2CCCC2)n1 [Example 302] | 9 nM | 189 nM | 995 nM |  |  |
| Cc1nccn1-c1cccc(-c2ccc3[nH]cc(-c4cncc(O[C@@H]5CCCNC5)n4)c3c2)n1 [Example 305] | 7 nM | 127 nM | 754 nM |  |  |
| Cc1ccn(-c2cccc(-c3ccc4[nH]cc(-c5cncc(O[C@@H]6CCCNC6)n5)c4c3)n2)n1 [Example 307] | 6 nM | 114 nM | 1600 nM |  |  |
| CC(C)n1cc(-c2ccc3[nH]cc(-c4cncc(O[C@@H]5CCCNC5)n4)c3c2)cn1 [Example 308, 5-(1-(1-methylethyl)-1H-pyrazol-4-yl)-3-(6-((3R)-3-piperidinyloxy)-2-pyrazinyl)-1H-indole] | 8 nM | 76 nM | 160 nM |  |  |
| COc1ccc(-c2ccc3[nH]cc(-c4cncc(O[C@@H]5CCCNC5)n4)c3c2)cn1 [Example 310] | 6 nM | 41 nM | 295 nM |  |  |
| CC1(C)CC1c1ccc2[nH]cc(-c3cncc(O[C@@H]4CCCNC4)n3)c2c1 (some centres unmarked) [Example 312] | 9 nM | 31 nM | 1310 nM |  |  |
